Data published in PubChem BioAssay (NCI).
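Values below derive from 48-hour exposures of cells grown in 96-well plates, with endpoints linearly interpolated between the two concentrations bracketing the appropriate inhibition level. Abbreviation: GI50, concentration required for 50% inhibition of growth. TGI marks complete inhibition of growth.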

Assays:
Test in all cases: NCI-60 cell line screen, 48 h
[1] = tested on: SF-295 CNS
[2] = tested on: SW-620 colon
[3] = tested on: NCI-H460 lung
[4] = tested on: NCI-H522 lung
[5] = tested on: SR leukemia
[6] = tested on: 786-0 renal
[7] = tested on: SF-539 CNS
[8] = tested on: NCI/ADR-RES ovarian
[9] = tested on: EKVX NSCLC
[10] = tested on: HCC-2998 colon

In the case of `N#CC1=C(N)NC(=O)C(C#N)C12Nc1ccccc1S2` (stereo not given), the GI50 [1] is reported as 50.6 µM, the TGI [1] is reported as > 100 µM and the GI50 [2] is reported as > 100 µM. The TGI [2] was > 100 µM, the GI50 [3] was > 100 µM and the TGI [3] was > 100 µM. It also gave a GI50 [4] of 19.1 µM, a TGI [4] of 60.5 µM and a GI50 [5] of 52.4 µM. For the same molecule, the TGI [5] was > 100 µM, the GI50 [6] was > 100 µM and the TGI [6] was > 100 µM. For the same molecule, the GI50 [7] was > 100 µM, the TGI [7] was > 100 µM and the GI50 [8] was 94.9 µM. The TGI [8] was > 100 µM, the GI50 [9] was > 100 µM and the TGI [9] was > 100 µM.

For `O=C(Nc1cc(Cl)c(I)c(Cl)c1)C(F)(F)F`, the TGI [1] was > 100 µM, the TGI [2] was > 100 µM and the TGI [3] was > 100 µM. For the same molecule, the TGI [4] was 42.2 µM, the TGI [5] was 99.5 µM and the TGI [6] was 74.4 µM. For the same molecule, the TGI [10] was 34.2 µM, the TGI [8] was > 100 µM and the TGI [9] was > 100 µM.

In the case of `COc1ccc([N+](=O)[O-])c2c(NCCCN(C)C)c(C)c(C)nc12`, the TGI [1] is reported as > 100 µM, the TGI [2] is reported as > 100 µM and the TGI [3] is reported as > 100 µM. For the same molecule, the TGI [4] was > 100 µM, the TGI [5] was 56.6 µM and the TGI [6] was > 100 µM. For the same molecule, the TGI [7] was > 100 µM, the TGI [10] was > 100 µM and the TGI [8] was > 100 µM.

`CN(c1cccc(C(=O)O)c1)c1cc(O/N=[N+](\[O-])N(C)C)c([N+](=O)[O-])cc1[N+](=O)[O-]` was tested, and the GI50 [1] was > 100 µM, the TGI [1] was > 100 µM and the GI50 [2] was > 100 µM. The TGI [2] was > 100 µM, the GI50 [3] was > 100 µM and the TGI [3] was > 100 µM. The GI50 [4] was > 100 µM, the TGI [4] was > 100 µM and the GI50 [5] was 56.4 µM. The TGI [5] was > 100 µM, the GI50 [6] was > 100 µM and the TGI [6] was > 100 µM. For the same molecule, the GI50 [7] was > 100 µM, the TGI [7] was > 100 µM and the GI50 [8] was > 100 µM. The TGI [8] was > 100 µM, the GI50 [9] was > 100 µM and the TGI [9] was > 100 µM.

`Cc1nc(-n2nc(-c3ccccc3)cc2-c2ccccc2)sc1C(=O)CC(=O)C(=O)Nc1ccc(Cl)c(Cl)c1` was tested, and the TGI [1] was > 100 µM, the TGI [2] was > 100 µM and the TGI [3] was > 100 µM. For the same molecule, the TGI [4] was > 100 µM, the TGI [5] was > 100 µM and the TGI [6] was > 100 µM. The TGI [7] was > 100 µM, the TGI [10] was > 100 µM and the TGI [9] was > 100 µM.

`CNc1c2ccccc2nc2occ(Cl)c12` showed a GI50 [1] of 20.6 µM, a TGI [1] of 88.2 µM and a GI50 [3] of 21.8 µM. The TGI [3] was 72.1 µM, the GI50 [4] was 80.3 µM and the TGI [4] was > 100 µM. The GI50 [5] was 18.3 µM, the TGI [5] was 50.6 µM and the GI50 [6] was 34.6 µM. The TGI [6] was > 100 µM, the GI50 [10] was 36 µM and the TGI [10] was > 100 µM. For the same molecule, the GI50 [8] was 30.1 µM and the TGI [8] was > 100 µM.

For `O=CNC(Cc1cnc[nH]1)C(=O)O` (stereo not given), the TGI [1] was > 100 µM, the TGI [2] was > 100 µM and the TGI [3] was > 100 µM. For the same molecule, the TGI [4] was > 100 µM, the TGI [5] was > 100 µM and the TGI [6] was > 100 µM. The TGI [7] was > 100 µM, the TGI [8] was > 100 µM and the TGI [9] was > 100 µM.

For `COc1ccc(-c2cc(=O)c3c(O)c(O)c(OC)cc3o2)cc1O`, the TGI [1] was > 100 µM, the TGI [2] was > 100 µM and the TGI [3] was > 100 µM. For the same molecule, the TGI [4] was > 100 µM, the TGI [5] was > 100 µM and the TGI [6] was > 100 µM. The TGI [7] was > 100 µM, the TGI [10] was > 100 µM and the TGI [9] was > 100 µM.

With `COc1ccc2c(=O)c(-c3cc(OC)c(OC)cc3OC)coc2c1` the TGI [1] was 12.5 µM, the TGI [2] was > 100 µM and the TGI [3] was > 100 µM. For the same molecule, the TGI [4] was 5.44 µM, the TGI [5] was > 100 µM and the TGI [6] was > 100 µM. For the same molecule, the TGI [7] was 43.1 µM, the TGI [10] was > 63.9 µM and the TGI [9] was > 100 µM.

`COc1ccc(-c2nc(NC(=O)CS(=O)(=O)c3ccc(F)cc3)sc2C)cc1` gave a GI50 [1] of 18.8 µM, a TGI [1] of 50.1 µM and a GI50 [2] of 13.7 µM. The TGI [2] was > 100 µM, the GI50 [3] was 20.1 µM and the TGI [3] was 51.5 µM. The GI50 [5] was 4.32 µM, the TGI [5] was 46.1 µM and the GI50 [6] was 23 µM. The TGI [6] was 61.3 µM, the GI50 [7] was 16.9 µM and the TGI [7] was 37.2 µM. It also gave a GI50 [10] of 26 µM, a TGI [10] of 94.7 µM and a GI50 [8] of 17.4 µM. For the same molecule, the TGI [8] was > 100 µM.

For `CC(=O)/C=C1\CC(=O)N(C)c2ccccc2N1`, the TGI [1] was > 100 µM, the TGI [2] was > 100 µM and the TGI [3] was > 100 µM. The TGI [4] was > 100 µM, the TGI [5] was > 100 µM and the TGI [6] was > 100 µM. For the same molecule, the TGI [7] was > 100 µM, the TGI [10] was > 100 µM and the TGI [9] was > 100 µM.

For `O=c1[nH]c2nc3ccccc3c(=O)n2nc1Cc1ccccc1`, the TGI [1] was > 100 µM, the TGI [2] was > 100 µM and the TGI [3] was > 100 µM. For the same molecule, the TGI [4] was > 100 µM, the TGI [5] was > 100 µM and the TGI [6] was > 100 µM. The TGI [7] was > 100 µM, the TGI [10] was > 100 µM and the TGI [9] was > 100 µM.

With `O=C1OC(c2ccc([N+](=O)[O-])cc2)=N/C1=C\c1ccc(Cl)cc1` the TGI [1] was > 100 µM, the TGI [2] was > 100 µM and the TGI [3] was > 100 µM. The TGI [4] was > 100 µM, the TGI [5] was > 100 µM and the TGI [6] was > 100 µM. The TGI [7] was > 100 µM, the TGI [10] was > 100 µM and the TGI [9] was > 100 µM.

With `O=C(O)/C=C/c1c2ccc(=O)c(O)c-2oc2c(O)c(O)ccc12` the TGI [1] was 55 µM, the TGI [2] was 49.6 µM and the TGI [3] was > 100 µM. For the same molecule, the TGI [4] was > 100 µM, the TGI [5] was > 100 µM and the TGI [6] was 54.9 µM. The TGI [10] was > 100 µM, the TGI [8] was > 100 µM and the TGI [9] was > 100 µM.

`CN(C)CCNC(=O)c1ccc2c(c1)oc1cc3ccccc3c(=O)n12` gave a GI50 [1] of 14.2 µM, a TGI [1] of 32.5 µM and a GI50 [2] of 15.5 µM. It also gave a TGI [2] of 31.7 µM, a GI50 [3] of 7.5 µM and a TGI [3] of 25.7 µM. For the same molecule, the GI50 [5] was 13.4 µM, the TGI [5] was > 100 µM and the GI50 [6] was 18.2 µM. For the same molecule, the TGI [6] was 33.1 µM, the GI50 [8] was 18.6 µM and the TGI [8] was 34.5 µM. The GI50 [9] was 18.1 µM and the TGI [9] was 36.6 µM.
